Experimental data from article PMC7367283, “A PIP2 substitute mediates voltage sensor-pore coupling in KCNQ activation” (Communications Biology, 2020).
“And” between values parts separate entries of the source, which are not always exact repeats. Equal values may be shown once.

Target: KCNQ2 (Homo sapiens, UniProt O43526)
Assay: Two-electrode voltage clamp of KCNQ2 in Xenopus oocytes
Format: cell-based
Details: Q2, individual oocytes
Description: KCNQ2 and KCNQ3 form a channel complex that carries M currents in neurons. Similar to KCNQ1, these KCNQ subunits require PIP2 for voltage-dependent activation. KCNQ2 alone can express functional channels in Xenopus oocytes, while KCNQ3 alone cannot. However, a single mutation, A315T, allows KCNQ3 to functionally express in Xenopus oocytes. We examined the effects of CP1 on KCNQ2, KCNQ3 with mutation A315T (denoted as KCNQ3*), KCNQ2+KCNQ3, and KCNQ2+KCNQ3* expressed in Xenopus oocytes (Fig. 5a). Similar to the effects on KCNQ1 and IKs channels, CP1 changed the amplitude of currents (Fig. 5b), shifted the G–V relation to more negative voltages (Fig. 5c), and slowed the deactivation kinetics (Fig. 5d) for all of these KCNQ channels. These CP1 effects were relatively small on KCNQ2 as compared with those on other KCNQ channels, and the effects on KCNQ2/KCNQ3* and KCNQ2/KCNQ3 complexes were closer to those on KCNQ2 alone.
Fig. 5 Subtype selectivity of CP1 on KCNQ channels. a Current traces of KCNQ channels as indicated in the absence and the presence of 10 µM CP1. […]
The whole-oocyte ionic currents were recorded with a GeneClamp 500B amplifier (Axon Instruments, CA) or iTEV90 amplifier (HEKA, Germany) and then sampled at 1 kHz and low-pass-filtered at 2 kHz. […] The Kir1.1 current was recorded with a high K^+ bath solution containing (in mM) 96 KCl, 4 NaCl, 1 CaCl2, 2 MgCl2, and 10 HEPES, pH 7.3–7.4. The HCN4 current was recorded in ND66 solution containing (in mM) 66 NaCl, 32 KCl, 1.8 CaCl2, 1 MgCl2, and 5 HEPES, pH 7.6. All the other potassium channels were recorded in ND96 solution. The currents of CaV1.2 channel were recorded in 40 mM Ba^2+ bath solution containing (in mM) 40 Ba(OH)2, 50 TEA-OH, 2 KOH, and 5 HEPES, adjusted to pH 7.4 with methanesulfonic acid. […] The HCN4 currents were recorded by a test pulse between −30 and −140 mV in 10-mV step from a holding potential of −30 mV. […]

SMILES: O=S(=O)([O-])Oc1c(-c2sc3c(ccc4cccc(Cl)c43)c2OS(=O)(=O)[O-])[nH]c2ccc(Br)cc12.[Na+].[Na+] [CP1, DISODIUM 5-BROMO-2-[9-CHLORO-3-(SULFONATOOXY) NAPHTHO [1,2-B] THIEN-2-YL]-1H-INDOL-3-YL SULFATE]
- outward current (Icp1/Ictrl) (10 µM CP1, at −10 mV): 0.9785 and 0.9995 and 0.8123 and 1.2015 and 0.921 and 1.0361 and 1.0974 and 0.9815
- ∆V1/2 (10 µM CP1): 17.7074 mV and 18.0799 mV and 23.5635 mV and 19.0344 mV and 22.5139 mV and 21.9525 mV and 18.3088 mV and 15.6776 mV
- τ deact at -120 mV (10 µM CP1 treated): 0.0991 s and 0.1579 s and 0.2146 s and 0.1525 s and 0.1022 s
